Assay results as given in BindingDB's records for doi:10.1016/j.bmcl.2010.10.033 (Glaxosmithkline, 2010).
pIC50: −log10 of the molar value.

Tests used:
[1] = Antagonist activity at CCR5 in HOS cells assessed as inhibition of HIV-1 Ba-L infection
[2] = Antagonist activity at CCR5 in human peripheral blood lymphocytes cells assessed as inhibition of HIV-1 Ba-L infection

Compound: C=CCN(C(=O)OCc1ccc(S(C)(=O)=O)cc1)C1CCN(CCC2(c3cccc(F)c3)CCN(C(=O)c3cc(S(=O)(=O)NC(C)(C)C)c(F)cc3Cl)CC2)CC1 [4-(methylsulfonyl)benzyl allyl(1-(2-(1-(5-(N-tert-butylsulfamoyl)-2-chloro-4-fluorobenzoyl)-4-(3-fluorophenyl)piperidin-4-yl)ethyl)piperidin-4-yl)carbamate]
- pIC50 [1]: 7.77
- pIC50 [2]: 8.35

Compound: C=CCN(C(=O)OCc1ccc(C(F)(F)F)cc1)C1CCN(CCC2(c3cccc(F)c3)CCN(C(=O)c3cc(S(=O)(=O)NC(C)(C)C)c(F)cc3Cl)CC2)CC1 [4-(trifluoromethyl)benzyl allyl(1-(2-(1-(5-(N-tert-butylsulfamoyl)-2-chloro-4-fluorobenzoyl)-4-(3-fluorophenyl)piperidin-4-yl)ethyl)piperidin-4-yl)carbamate]
- pIC50 [1]: 7.82
- pIC50 [2]: 7.40

Compound: C=CCN(C(=O)OCc1ccc([N+](=O)[O-])cc1)C1CCN(CCC2(c3cccc(F)c3)CCN(C(=O)c3cc(S(=O)(=O)NC(C)(C)C)c(F)cc3Cl)CC2)CC1 [4-nitrobenzyl allyl(1-(2-(1-(5-(N-tert-butylsulfamoyl)-2-chloro-4-fluorobenzoyl)-4-(3-fluorophenyl)piperidin-4-yl)ethyl)piperidin-4-yl)carbamate]
- pIC50 [1]: 8.07
- pIC50 [2]: 7.62

Compound: C=CCN(C(=O)Nc1ccc(S(C)(=O)=O)cc1)C1CCN(CCC2(c3cccc(F)c3)CCN(C(=O)c3cc(S(=O)(=O)NC(C)(C)C)c(F)cc3Cl)CC2)CC1 [5-(4-(2-(4-(1-allyl-3-(4-(methylsulfonyl)phenyl)ureido)piperidin-1-yl)ethyl)-4-(3-fluorophenyl)piperidine-1-carbonyl)-N-tert-butyl-4-chloro-2-fluorobenzenesulfonamide]
- pIC50 [1]: 7.94
- pIC50 [2]: 7.46

Compound: C=CCN(C(=O)NCc1ccc(C(F)(F)F)cc1)C1CCN(CCC2(c3cccc(F)c3)CCN(C(=O)c3cc(S(=O)(=O)NC(C)(C)C)c(F)cc3Cl)CC2)CC1 [5-(4-(2-(4-(1-allyl-3-(4-(trifluoromethyl)benzyl)ureido)piperidin-1-yl)ethyl)-4-(3-fluorophenyl)piperidine-1-carbonyl)-N-tert-butyl-4-chloro-2-fluorobenzenesulfonamide]
- pIC50 [1]: 8.16
- pIC50 [2]: 7.38

Compound: C=CCN(C(=O)NCc1ccc(C#N)cc1)C1CCN(CCC2(c3cccc(F)c3)CCN(C(=O)c3cc(S(=O)(=O)NC(C)(C)C)c(F)cc3Cl)CC2)CC1 [5-(4-(2-(4-(1-allyl-3-(4-cyanobenzyl)ureido)piperidin-1-yl)ethyl)-4-(3-fluorophenyl)piperidine-1-carbonyl)-N-tert-butyl-4-chloro-2-fluorobenzenesulfonamide]
- pIC50 [1]: 8.41
- pIC50 [2]: 8.43

Compound: C=CCN(C(=O)Nc1ccc(C#N)cc1)C1CCN(CCC2(c3cccc(F)c3)CCN(C(=O)c3cc(S(=O)(=O)NC(C)(C)C)c(F)cc3Cl)CC2)CC1 [5-(4-(2-(4-(1-allyl-3-(4-cyanophenyl)ureido)piperidin-1-yl)ethyl)-4-(3-fluorophenyl)piperidine-1-carbonyl)-N-tert-butyl-4-chloro-2-fluorobenzenesulfonamide]
- pIC50 [1]: 7.69
- pIC50 [2]: 7.60

Compound: C=CCN(C(=O)CCc1ccc(OC(F)(F)F)cc1)C1CCN(CCC2(c3cccc(F)c3)CCN(C(=O)c3cc(S(=O)(=O)NC)c(F)cc3Cl)CC2)CC1 [N-allyl-N-(1-(2-(1-(2-chloro-4-fluoro-5-(N-methylsulfamoyl)benzoyl)-4-(3-fluorophenyl)piperidin-4-yl)ethyl)piperidin-4-yl)-3-(4-(trifluoromethoxy)phenyl)propanamide]
- pIC50 [1]: 6.38

Compound: C=CCN(C(=O)CCc1ccc(C#N)cc1)C1CCN(CCC2(c3cccc(F)c3)CCN(C(=O)c3cc(S(=O)(=O)NC)c(F)cc3Cl)CC2)CC1 [N-allyl-N-(1-(2-(1-(2-chloro-4-fluoro-5-(N-methylsulfamoyl)benzoyl)-4-(3-fluorophenyl)piperidin-4-yl)ethyl)piperidin-4-yl)-3-(4-cyanophenyl)propanamide]
- pIC50 [1]: 6.82

Compound: C=CCN(C(=O)Cc1ccc(S(C)(=O)=O)cc1)C1CCN(CCC2(c3cccc(F)c3)CCN(C(=O)c3cc(S(=O)(=O)NC(C)(C)C)c(F)cc3Cl)CC2)CC1 [N-allyl-N-(1-(2-(1-(5-(N-tert-butylsulfamoyl)-2-chloro-4-fluorobenzoyl)-4-(3-fluorophenyl)piperidin-4-yl)ethyl)piperidin-4-yl)-2-(4-(methylsulfonyl)phenyl)acetamide]
- pIC50 [1]: 7.19

Compound: C=CCN(C(=O)Cc1ccc(OC(F)(F)F)cc1)C1CCN(CCC2(c3cccc(F)c3)CCN(C(=O)c3cc(S(=O)(=O)NC(C)(C)C)c(F)cc3Cl)CC2)CC1 [N-allyl-N-(1-(2-(1-(5-(N-tert-butylsulfamoyl)-2-chloro-4-fluorobenzoyl)-4-(3-fluorophenyl)piperidin-4-yl)ethyl)piperidin-4-yl)-2-(4-(trifluoromethoxy)phenyl)acetamide]
- pIC50 [1]: 7.74
- pIC50 [2]: 7.06

Compound: C=CCN(C(=O)Cc1ccc(C(F)(F)F)cc1)C1CCN(CCC2(c3cccc(F)c3)CCN(C(=O)c3cc(S(=O)(=O)NC(C)(C)C)c(F)cc3Cl)CC2)CC1 [N-allyl-N-(1-(2-(1-(5-(N-tert-butylsulfamoyl)-2-chloro-4-fluorobenzoyl)-4-(3-fluorophenyl)piperidin-4-yl)ethyl)piperidin-4-yl)-2-(4-(trifluoromethyl)phenyl)acetamide]
- pIC50 [1]: 8.48
- pIC50 [2]: 7.28

Compound: C=CCN(C(=O)Cc1ccc(F)cc1)C1CCN(CCC2(c3cccc(F)c3)CCN(C(=O)c3cc(S(=O)(=O)NC(C)(C)C)c(F)cc3Cl)CC2)CC1 [N-allyl-N-(1-(2-(1-(5-(N-tert-butylsulfamoyl)-2-chloro-4-fluorobenzoyl)-4-(3-fluorophenyl)piperidin-4-yl)ethyl)piperidin-4-yl)-2-(4-fluorophenyl)acetamide]
- pIC50 [1]: 7.28

Compound: CCCCN(C(=O)NCc1ccc(C#N)cc1)C1CCN(CCC2(c3cccc(F)c3)CCN(C(=O)c3cc(S(=O)(=O)NC(C)(C)C)c(F)cc3Cl)CC2)CC1 [N-tert-butyl-5-(4-(2-(4-(1-butyl-3-(4-cyanobenzyl)ureido)piperidin-1-yl)ethyl)-4-(3-fluorophenyl)piperidine-1-carbonyl)-4-chloro-2-fluorobenzenesulfonamide]
- pIC50 [1]: 8.59
- pIC50 [2]: 7.96

Compound: C=CCN(C(=O)NCc1ccc(C(=O)OC)cc1)C1CCN(CCC2(c3cccc(F)c3)CCN(C(=O)c3cc(S(=O)(=O)NC(C)(C)C)c(F)cc3Cl)CC2)CC1 [methyl 4-((3-allyl-3-(1-(2-(1-(5-(N-tert-butylsulfamoyl)-2-chloro-4-fluorobenzoyl)-4-(3-fluorophenyl)piperidin-4-yl)ethyl)piperidin-4-yl)ureido)methyl)benzoate]
- pIC50 [1]: 7.59
- pIC50 [2]: 6.84

Compound: C=CCN(C(=O)OCc1ccc(C(=O)OC)cc1)C1CCN(CCC2(c3cccc(F)c3)CCN(C(=O)c3cc(S(=O)(=O)NC(C)(C)C)c(F)cc3Cl)CC2)CC1 [methyl 4-((allyl(1-(2-(1-(5-(N-tert-butylsulfamoyl)-2-chloro-4-fluorobenzoyl)-4-(3-fluorophenyl)piperidin-4-yl)ethyl)piperidin-4-yl)carbamoyloxy)methyl)benzoate]
- pIC50 [1]: 7.39
